Like-named read-outs stand apart in the source and are kept apart here.
Tests used:
Assay in all cases: Test D pre-/postemergence plant response
Type in all cases: in vivo
[1] = test system: Italian ryegrass (Lolium multiflorum); conditions: Lolium multiflorum; for pest or weed control at 16 g/ha: 16 g ai/ha; for pest or weed control at 31 g/ha: 31 g ai/ha; for pest or weed control at 62 g/ha: 62 g ai/ha; for pest or weed control at 125 g/ha: 125 g ai/ha
Outline: (§1)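 Visual injury scoring (0–100) at 13 to 15 days in greenhouse. Preemergence sprays on seeded loam/sand; postemergence sprays on 1–4 leaf plants.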

[2] = test system: barnyardgrass (Echinochloa crus-galli); conditions: Echinochloa crus-galli; for pest or weed control at 16 g/ha: 16 g ai/ha; for pest or weed control at 16 g/ha / pest or weed control at 31 g/ha: scale 0 to 100 (0 no effect, 100 complete control); for pest or weed control at 31 g/ha: 31 g ai/ha; for pest or weed control at 62 g/ha: 62 g ai/ha; for pest or weed control at 125 g/ha: 125 g ai/ha
Outline: as §1

[3] = test system: blackgrass (Alopecurus myosuroides); conditions: Alopecurus myosuroides; for pest or weed control at 16 g/ha: 16 g ai/ha; for pest or weed control at 31 g/ha: 31 g ai/ha; for pest or weed control at 62 g/ha: 62 g ai/ha; for pest or weed control at 125 g/ha: 125 g ai/ha
Outline: as §1

corn (Zea mays) = conditions: Zea mays; for Corn plant response rating (crop injury, 0 = no effect, 100 = complete kill) at 62 g/ha: 62 g ai/ha
Outline: as §1

[4] = test system: galium (catchweed bedstraw, Galium aparine); conditions: Galium; for pest or weed control at 16 g/ha: 16 g ai/ha; for pest or weed control at 31 g/ha: 31 g ai/ha; for pest or weed control at 62 g/ha: 62 g ai/ha; for pest or weed control at 125 g/ha: 125 g ai/ha
Outline: as §1

[5] = test system: giant foxtail (Setaria faberii); conditions: Setaria faberi, post-emergence, Postemergence
Outline: as §1

[6] = post-emergence, Postemergence, scale 0 to 100 (0 no effect, 100 complete control), read-out: Ryegrass, Italian plant response rating
[7] = post-emergence, Postemergence, scale 0 to 100, 0 no effect, 100 complete control, read-out: Plant response rating, Ryegrass, Italian
[8] = pre-emergence, Preemergence, scale 0 to 100 (0 no effect, 100 complete control), read-out: Plant response rating, Ryegrass, Italian
[9] = post-emergence, Postemergence, read-out: Barnyardgrass plant response rating
[10] = post-emergence, Postemergence, scale 0 to 100, 0 no effect, 100 complete control, read-out: Plant response rating, Barnyardgrass
[11] = pre-emergence, Preemergence, read-out: Plant response rating (scale 0 to 100), Barnyardgrass
[12] = pre-emergence, Preemergence, read-out: Plant response rating, Barnyardgrass
[13] = post-emergence, Postemergence, scale 0 to 100 (0 no effect, 100 complete control), read-out: Blackgrass plant response rating
[14] = post-emergence, Postemergence, scale 0 to 100, 0 no effect, 100 complete control, read-out: Plant response rating, Blackgrass
[15] = pre-emergence, Preemergence, scale 0 to 100 (0 no effect, 100 complete control), read-out: Plant response rating, Blackgrass
[16] = post-emergence, Postemergence, scale 0 to 100 (0 no effect, 100 complete control), read-out: Galium plant response rating
[17] = post-emergence, Postemergence, scale 0 to 100, 0 no effect, 100 complete control, read-out: Plant response rating, Galium
[18] = pre-emergence, Preemergence, scale 0 to 100 (0 no effect, 100 complete control), read-out: Plant response rating, Galium

Structure (SMILES): FC(F)(F)c1cc(-c2ccccc2Oc2ncc(Cl)cn2)on1 [Compound 63, 5-chloro-2-[2-[3-(trifluoromethyl)-5-isoxazolyl]phenoxy]pyrimidine]
- pest or weed control at 16 g/ha [1, 6]: 0%
- pest or weed control at 31 g/ha [1, 6]: 0%
- pest or weed control at 62 g/ha [1, 7]: 5%
- pest or weed control at 125 g/ha [1, 7]: 30%
- pest or weed control at 125 g/ha ([1]; pre-emergence, Preemergence, read-out: Plant response rating (scale 0 to 100), Ryegrass, Italian): 90%
- pest or weed control at 16 g/ha [1, 8]: 0%
- pest or weed control at 31 g/ha [1, 8]: 40%
- pest or weed control at 62 g/ha [1, 8]: 80%
- pest or weed control at 16 g/ha [2, 9]: 5%
- pest or weed control at 31 g/ha [2, 9]: 10%
- pest or weed control at 62 g/ha [2, 10]: 10%
- pest or weed control at 125 g/ha [2, 10]: 10%
- pest or weed control at 62 g/ha [2, 11]: 98%
- pest or weed control at 125 g/ha [2, 11]: 100%
- pest or weed control at 16 g/ha [2, 12]: 30%
- pest or weed control at 31 g/ha [2, 12]: 65%
- pest or weed control at 16 g/ha [3, 13]: 5%
- pest or weed control at 31 g/ha [3, 13]: 10%
- pest or weed control at 62 g/ha [3, 14]: 20%
- pest or weed control at 125 g/ha [3, 14]: 25%
- pest or weed control at 125 g/ha ([3]; pre-emergence, Preemergence, read-out: Plant response rating (scale 0 to 100), Blackgrass): 90%
- pest or weed control at 16 g/ha [3, 15]: 30%
- pest or weed control at 31 g/ha [3, 15]: 85%
- pest or weed control at 62 g/ha [3, 15]: 90%
- plant injury at 16 g/ha (corn (Zea mays); post-emergence, Postemergence, 16 g ai/ha, scale 0 to 100 (0 no effect, 100 complete control), read-out: Corn plant response rating): 5%
- plant injury at 31 g/ha (corn (Zea mays); post-emergence, Postemergence, 31 g ai/ha, scale 0 to 100 (0 no effect, 100 complete control), read-out: Corn plant response rating): 5%
- Corn plant response rating (crop injury, 0 = no effect, 100 = complete kill) at 62 g/ha (corn (Zea mays); post-emergence, Postemergence, scale 0 to 100, 0 no effect, 100 complete control): 5%
- Corn plant response rating (crop injury, 0 = no effect, 100 = complete kill) at 125 g/ha (corn (Zea mays); post-emergence, Postemergence, 125 g ai/ha, scale 0 to 100, 0 no effect, 100 complete control): 10%
- plant injury at 125 g/ha (corn (Zea mays); pre-emergence, Preemergence, 125 g ai/ha, read-out: Plant response rating (scale 0 to 100), Corn): 15%
- Corn plant response rating (crop injury, 0 = no effect, 100 = complete kill) at 16 g/ha (corn (Zea mays); pre-emergence, Preemergence, 16 g ai/ha, scale 0 to 100 (0 no effect, 100 complete control)): 0%
- Corn plant response rating (crop injury, 0 = no effect, 100 = complete kill) at 31 g/ha (corn (Zea mays); pre-emergence, Preemergence, 31 g ai/ha, scale 0 to 100 (0 no effect, 100 complete control)): 5%
- Corn plant response rating (crop injury, 0 = no effect, 100 = complete kill) at 62 g/ha (corn (Zea mays); pre-emergence, Preemergence, scale 0 to 100 (0 no effect, 100 complete control)): 15%
- pest or weed control at 16 g/ha [4, 16]: 60%
- pest or weed control at 31 g/ha [4, 16]: 70%
- pest or weed control at 62 g/ha [4, 17]: 70%
- pest or weed control at 125 g/ha [4, 17]: 70%
- pest or weed control at 125 g/ha ([4]; pre-emergence, Preemergence, read-out: Plant response rating (scale 0 to 100), Galium): 98%
- pest or weed control at 16 g/ha [4, 18]: 75%
- pest or weed control at 31 g/ha [4, 18]: 98%
- pest or weed control at 62 g/ha [4, 18]: 98%
- pest or weed control at 16 g/ha ([5]; 16 g ai/ha, scale 0 to 100 (0 no effect, 100 complete control), read-out: Foxtail, Giant plant response rating): 0%
- pest or weed control at 31 g/ha ([5]; 31 g ai/ha, scale 0 to 100 (0 no effect, 100 complete control), read-out: Foxtail, Giant plant response rating): 5%
- pest or weed control at 62 g/ha ([5]; 62 g ai/ha, scale 0 to 100, 0 no effect, 100 complete control, read-out: Plant response rating, Foxtail, Giant): 10%
- pest or weed control at 125 g/ha ([5]; 125 g ai/ha, scale 0 to 100, 0 no effect, 100 complete control, read-out: Plant response rating, Foxtail, Giant): 20%

Source: patent US10131652B2, “Pyrimidinyloxy benzene derivatives as herbicides” (E. I. DU PONT DE NEMOURS AND COMPANY, priority 2014, dated 2018)
